Reference: patent publication US8691818B2, “Cyclic triazo and diazo sodium channel blockers” (University Of Greenwich, priority 2008, dated 2014)
Counter-ions that a name gives are not always drawn.

What was measured:
[1] = system: sodium channel; test: [14C]guanidine flux: veratrine-evoked uptake of [14C]guanidine into rat forebrain synaptosomes (primary sodium channel assay); format: biochemical; conditions: 30° for 2½ min
Experimental: The screening strategy is designed to select compounds with appropriate sodium channel blocking activity and low side effect liability. To this end all compounds are processed through the primary sodium channel assay (veratrine-evoked uptake of [^14C]guanidine into rat forebrain synaptosomes) and IC50 values computed from generated concentration-effect curves.
Experiments were performed using forebrain (whole brain less cerebellum/medulla) from Male Wistar rats weighing 175-250 g. All efforts were made to reduce the number of animals used and all experiments were carried out in accordance with the UK Animals (Scientific Procedures) Act, 1986 and the European Community Council Directive of 24 Nov. 1986 (86/609/EEC). Following killing of animals by stunning and decapitation, the forebrain (whole brain less cerebellum/medulla) was rapidly dissected and transferred to a weighed tube containing ice-cold 0.25M sucrose.
Synaptosomes (heavy and light mitochondrial fraction containing synaptosomes) were prepared by transferring the forebrain (of known wet weight) to a glass Potter vessel to which 9 volumes ice-cold 0.25M sucrose had been added and homogenising, using a teflon pestle, by 8 ‘up and down strokes’ of a Braun Potter S motor driven homogeniser set to 900 rpm. The resulting homogenate was centrifuged at 1036×g at 4° for 10 min and the supernatant collected. The remaining pellet was resuspended, as above, in fresh ice-cold 0.25M sucrose and the centrifugation step repeated. The supernatant fractions were pooled and centrifuged at 40,000×g (average) at 4° for 15 min and the resulting pellet resuspended in the appropriate assay buffer at a concentration of 20-25 mg wet weight per ml appropriate assay buffer.
Both assays were carried out using 14 ml polypropylene test tubes to which a range of concentrations of the compounds under test were added.
The [^14C] guanidinine flux assay was measured using the method of Pauwels P J et al (1986) but carried out@30° for 2½ min.
(§1) Data are presented as mean±sem of number of experiments indicated in brackets.

[2] = molecular target: T1, DiHydroFolate Reductase (DHFR) (Rattus norvegicus, UniProt Q920D2); test: Inhibition of binding of [3H]methotrexate to rat liver homogenate supernatant; conditions: for inhibition at 125 µM: read-out: [3H]mtx binding (% inhibition @ 125 μM); for inhibition at 99 µM: read-out: [3H]mtx binding % inhibition (* 99 μM, *** uses fresh batch of supernatant), 99 μM, fresh batch of supernatant
T1 construct: from tissue; host or cells: rat liver homogenate supernatant
T1 sequence (Q920D2 1-187): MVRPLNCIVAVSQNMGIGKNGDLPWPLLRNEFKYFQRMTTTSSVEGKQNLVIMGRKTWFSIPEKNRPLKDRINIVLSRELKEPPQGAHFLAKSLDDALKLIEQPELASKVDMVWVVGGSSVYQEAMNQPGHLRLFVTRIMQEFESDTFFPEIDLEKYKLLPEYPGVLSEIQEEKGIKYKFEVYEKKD
Experimental: All steps were carried out at 4° (or on ice). Freshly dissected rat liver was dissected into 0.25M ice-cold Sucrose and subsequently homogenised (U-turrax) in 50 mM pH 6.0 phosphate buffer (10 ml/g tissue) containing 15 mM Dithiothreitol. The resulting homogenate was centrifuged@47,500×g for 20 min and supernatant (filtered through cotton wool to remove fatty lumps) stored @ −80° before use (Rothenberg et al).
Inhibition of the binding of [^3H]methotrexate to rat liver homogenate supernatant fractions were carried out essentially as described by Arons et al, 1975.
as §1

IC50 [1]	inhibition at 125 µM [2]	melting point	inhibition at 99 µM [2]	Compound
513 µM	54%	190 to 192 °C		Nc1nnc(-c2cc(Cl)sc2Cl)c(N)n1 [CEN-71, 3,5-Diamino-6-[3-(2,5 dichlorothienyl)]-1,2,4-triazine]
> 2000 µM	-1%	286 to 288 °C		CS(=O)(=O)c1ccc(-c2nnc(N)nc2N)c(Cl)c1 [CEN-179, 3,5-Diamino-6-[2-chloro-4-(methylsulphonyl)phenyl]-1,2,4-triazine]
20.4 µM	38%	184 to 186 °C		Nc1nnc(C2(c3ccc(Cl)cc3)CCCC2)c(N)n1 [CEN-148, 3,5-Diamino-6-[1-(4-chlorophenyl)-1-cyclopenty]-1,2,4-triazine]
> 1000 µM	86%	318 to 320 °C		Nc1nnc(-c2cc(Br)c(Br)s2)c(N)n1 [CEN-122, 3,5-Diamino-6-[2-(4,5-dibromothienyl)]-1,2,4-triazine]
398 µM	-2%	202 to 204 °C		Nc1nnc(-c2cccc3c2CCCC3)c(N)n1 [CEN-94]
> 2000 µM		225 to 228 °C	91%	COc1cc(OC)cc(-c2nnc(N)nc2N)c1 [CEN-192, 3,5-Diamino-6-(3,5-dimethoxyphenyl)-1,2,4-triazine]
295 µM	99%	222 to 224 °C		Nc1nnc(-c2ccccc2-c2ccccc2)c(N)n1 [CEN-74, 3,5-Diamino-6-(2-biphenyl)-1,2,4-triazine]
1150 µM	-7%	350 to 352 °C		Nc1nnc(-c2c3ccccc3cc3ccccc23)c(N)n1 [CEN-118, 6-(9-Anthracenyl)-3,5-diamino-1,2,4-triazine]
234 µM	100%	249 to 251 °C		Nc1nnc(-c2cc(Cl)cc(C(F)(F)F)c2)c(N)n1 [CEN-172, 3,5-Diamino-6-(3-chloro-5-trifluoromethylphenyl)-1,2,4-triazine]
288 µM	30%	212 to 214 °C		CCOc1cc2ccccc2cc1-c1nnc(N)nc1N [CEN-141]
> 1000 µM	23%	160 to 162 °C		Nc1nnc(-c2c(Cl)cccc2Cl)c(N)n1 [CEN-104, 3,5-Diamino-6-(2,6-dichlorophenyl)-1,2,4-triazine]
132 µM	101%	194 to 196 °C		Nc1nnc(-c2cccc3ccccc23)c(N)n1 [CEN-72, 6-(1-Naphthyl)-1,2,4-triazine-3,5-diamine]
> 2000 µM	23%	158 to 160 °C		Nc1nnc(-c2ccccc2OC(F)(F)C(F)F)c(N)n1 [CEN-137, 3,5-Diamino-6-[2-(1,1,2,2-tetrafluoroethoxy)phenyl]-1,2,4-triazine]
135 µM		185 to 187 °C	99%	Nc1nnc(-c2cc(OCC(F)(F)F)cc(OCC(F)(F)F)c2)c(N)n1 [CEN-193, 3,5-Diamino-6-[3,5-bis(2,2,2-trifluoroethoxy)phenyl]-1,2,4-triazine]
> 1000 µM	61%	288 to 290 °C		COc1ccc(-c2nnc(N)nc2N)cc1OC [CEN-115, 3,5-Diamino-6-(3,4-dimethoxyphenyl)-1,2,4-triazine]
57.5 µM	96%	164 to 166 °C		Nc1nnc(-c2cccc(OCc3ccc(Cl)cc3Cl)c2)c(N)n1 [CEN-144, 3,5-Diamino-6-[3-(2,4-dichlorobenzyloxyphenyl)]-1,2,4-triazine]
> 1000 µM	92%	272 to 275 °C		Nc1nnc(-c2cc(Br)c(Br)o2)c(N)n1 [CEN-121, 3,5-Diamino-6-[2-(4,5-dibromofuryl)]-1,2,4-triazine]
39 µM	106%	184 to 186 °C		CCCCc1ccc(-c2nnc(N)nc2N)cc1 [CEN-183, 3,5-Diamino-6-(4-n-butylphenyl)-1,2,4-triazine]
347 µM	95%	238 to 239 °C		Nc1nnc(-c2cc(C(F)(F)F)ccc2Cl)c(N)n1 [CEN-169, 3,5-Diamino-6-(2-chloro 5 trifluoromethylphenyl)-1,2,4-triazine]
> 1000 µM	6%	309 to 311 °C		COc1cc(-c2nnc(N)nc2N)cc(OC)c1OC [CEN-95, 3,5-Diamino-6-(3,4,5 trimethoxyphenyl)-1,2,4-triazine]
26.9 µM	43%	160 to 161 °C		Cn1nc(-c2cccc(Oc3ccccc3)c2)c(N)nc1=N [CEN-106, 5(3)-Amino-6-(3-phenoxyphenyl)-2,3(2,5)-dihydro-3(5)-imino-2-methyl-1,2,4-triazine]
1170 µM	48%	247 to 249 °C		Nc1nnc(-c2ccc(-c3ccccc3)o2)c(N)n1 [CEN-107, 3,5-Diamino-6-[2-(5-phenylfuryl)]-1,2,4-triazine]
174 µM	46%	318 to 320 °C		Nc1nnc(-c2sc3ccccc3c2Cl)c(N)n1 [CEN-114, 3,5-Diamino-6-[2-(3-chlorobenzo[b]thiophenyl)]-1,2,4-triazine]
110 µM	105%	260 to 262 °C		Nc1nnc(-c2ccc3cc(Br)ccc3c2)c(N)n1 [CEN-96]
363 µM	101%	200 to 202 °C		Nc1nnc(-c2ccccc2Oc2ccccc2)c(N)n1 [CEN-97, 3,5-Diamino-6-(2-phenoxphenyl)-1,2,4-triazine]
> 2000 µM	52%	199 to 201 °C		Nc1nnc(-c2ccsc2)c(N)n1 [CEN-64, 3,5-Diamino-6-(3-thienyl)-1,2,4-triazine]
> 1000 µM	47%	217 to 218 °C		Nc1nnc(-c2ccc3c(c2)OCO3)c(N)n1 [CEN-103, 3,5-Diamino-6-(3,4-methylenedioxyphenyl)-1,2,4-triazine]
3 µM	90%	190 to 192 °C		Nc1nnc(-c2cccc(OCc3c(Cl)cccc3Cl)c2)c(N)n1 [CEN-185, 3,5-Diamino-6-[3-(2,6-dichlorobenzyloxy)phenyl]-1,2,4-triazine]
50.1 µM	2%	124 to 126 °C		Nc1nnc(C(c2ccccc2)(c2ccccc2)c2ccccc2)c(N)n1 [CEN-153, 3,5-Diamino-6-(triphenylmethy)-1,2,4-triazine]
		174 to 176 °C		Cn1nc(-c2ccc(Oc3ccccc3)cc2)c(N)nc1=N (as salt: methanesulfonate) [CEN-102, 5(3)-Amino-6-(4-phenoxyphenyl)-2,3(2,5)-dihydro-3(5)-imino-2-methyl-1,2,4-triazine methanesulfonate]

Compound	IC50 [1]	inhibition at 125 µM [2]	melting point	inhibition at 99 µM [2]
Cn1nc(-c2cc(F)c(F)cc2Cl)c(N)nc1=N (as salt: mesylate) [CEN-204, 5(3)-Amino-6-(2-chloro-4,5-difluoro-5-phenyl)-2,3(2,5)-dihydro-3(5)-imino-2-methyl-1,2,4-triazine mesylate]			319 to 321 °C	
